In patent US4410516A, “1-N(αHydroxy-ω-aminoalkanoyl) derivatives of 5,3',4'-trideoxy- or 5,3', 4'-trideoxy-6'-N- methyl- or 5, 3', 4',6"-tetradeoxykannamyci B and production thereof” (Zaidan Hojin Biseibutsu Kagaku Kenkyu Kai, priority 1981, dated 1983):
Values after ≈ are worked out from the molar mass of the structure shown. Where two headings read alike, the source gives them in different places.

Key:
Assay type in all cases: cell-based
[1] = system: Staphylococcus aureus 209P; test: Minimum inhibitory concentration, serial dilution on nutrient agar; details: 37° C., 18 hours incubation
[2] = system: Escherichia coli NIHJ; test: as above
[3] = system: Providencia Pv 16; test: as above; details: PV16, 37° C., 18 hours incubation
[4] = system: Escherichia coli K-12; test: as above
[5] = system: Pseudomonas aeruginosa K-Ps102; test: as above
[6] = system: Pseudomonas aeruginosa H9; test: as above
[7] = system: Escherichia coli K-12 C 600R/35; test: as above; details: K12C600R/35, 37° C., 18 hours incubation
Source text: (§1) The minimum inhibitory concentration (mcg/ml) of 1-N-[(S)-4-amino-2-hydroxybutyryl]-5,3',4'-trideoxykanamycin B (abbreviated as AHB-trideoxyKMB), 1-N-[(RS)-3-amino-2-hydroxypropionyl]-5,3',4'-trideoxykanamycin B (abbreviated as AHP-trideoxy-KMB) and 1-N-[(S)-4-amino-2-hydroxybutyryl]-5,3',4',6"-tetradeoxykanamycin B (abbreviated as AHB-tetradeoxyKMB) of the formula (II) according to this invention as well as of the new compound 5,3',4',6"-tetradeoxykanamycin B (abbreviated as tetradeoxyKMB) of the formula (III) according to this invention against various microorganisms were determined according to serial dilution method on a nutrient agar medium at 37° C., the estimation being made after 18 hours incubation. For comparison purpose, the minimum inhibitory concentrations of habekacin were also determined in the same manner as stated above.
(§2) The minimum inhibitory concentrations (mcg/ml) of 1-N-[(S)-4-amino-2-hydroxybutyryl]-5,3',4'-trideoxy-6'-N-methylkanamycin B (abbreviated as AHB-trideoxyMKMB), 1-N-[(RS)-3-amino-2-hydroxypropionyl]-5,3',4'-trideoxy-6'-N-methylkanamycin B (abbreviated as AHP-trideoxyMKMB) and 1-N-[(S)-5-amino-2-hydroxyvaleryl]-5,3',4'-trideoxy-6'-N-methylkanamycin B (abbreviated as AHV-trideoxyMKMB) of the formula (IV) according to this invention as well as of the new compound 5,3',4'-trideoxy-6'-N-methylkanamycin B (abbreviated as trideoxyMKMB) of the formula (V) according to this invention against various microorganisms were determined according to serial dilution method on a nutrient agar medium at 37° C., the estimation being made after 18 hours incubation. For comparison purpose, the minimum inhibitory concentrations of 1-N-[(S)-4-amino-2-hydroxybutyryl]-3',4'-dideoxykanamycin B (ie. habekacin) were also determined in the same manner as stated above.

[8] = system: Escherichia coli K-12 J5R 11-2; test: as above; details: K12J5R112, 37° C., 18 hours incubation
Source text: as §1, §2

[9] = system: Shigella sonnei JS11746; test: as above; details: 37° C., 18 hours incubation
Source text: as §1, §2

[10] = system: Shigella flexneri 4b JS11811; test: as above; details: 4BJS11811, 37° C., 18 hours incubation
Source text: as §1, §2

[11] = system: Escherichia coli K-12 ML 1630; test: as above; details: K12ML1630, 37° C., 18 hours incubation
Source text: as §1, §2

[12] = system: Klebsiella pneumoniae PCI 602; test: as above
[13] = system: Serratia SOU; test: as above; details: 37° C., 18 hours incubation
[14] = system: Bacillus cereus ATCC 10702; test: as above
[15] = system: Pseudomonas maltophilia GN907; test: as above; details: Stenotrophomonas maltophilia, 37° C., 18 hours incubation
[16] = system: Pseudomonas aeruginosa 21-75; test: as above; details: 2175, 37° C., 18 hours incubation
[17] = system: Escherichia coli K-12 LA 290 R56; test: as above; details: K12LA290R56, 18 h
[18] = system: Bacillus anthracis; test: microbe, parasite or virus in culture; details: 18 h
[19] = system: Pseudomonas aeruginosa 99; test: Minimum inhibitory concentration, serial dilution on nutrient agar
[20] = system: Serratia 4; test: as above; details: 37° C., 18 hours incubation
[21] = system: Pseudomonas aeruginosa TI-13; test: as above
[22] = system: Escherichia coli K-12 LA 290 R64; test: as above; details: K12LA290R64, 18 h
[23] = system: Micrococcus flavus FDA 16; test: as above; details: FDA16, 18 h
[24] = system: Pseudomonas aeruginosa No. 12; test: as above
[25] = system: Mycobacterium smegmatis ATCC 607; test: as above; details: Mycolicibacterium smegmatis, ATCC607; nutrient agar, 37° C., 18 hours incubation; read-out: MIC
[26] = system: Sarcina lutea PCI 1001; test: as above; details: Micrococcus luteus
[27] = system: Escherichia coli K-12 R5; test: as above; details: K12R5, 18 h
[28] = system: Salmonella typhi T-63; test: as above; details: Salmonella enterica, 18 h
[29] = system: Bacillus subtilis PCI 219; test: as above; details: PCI219, 37° C., 18 hours incubation
[30] = system: Staphylococcus aureus AP01; test: as above; details: 37° C., 18 hours incubation
[31] = system: Escherichia coli JR66/W677; test: as above
[32] = ATCC10702, nutrient agar, 37° C., 18 hours incubation, read-out: MIC
[33] = Pseudomonas aeruginosa, 99, nutrient agar, 37° C., 18 hours incubation, read-out: MIC
[34] = PCI1001, nutrient agar, 37° C., 18 hours incubation, read-out: MIC

SMILES	MIC [1] [µg/mL]	MIC [3] [µg/mL]	MIC [7] [µg/mL]	MIC [8] [µg/mL]	MIC [9] [µg/mL]	MIC [10] [µg/mL]	MIC [11] [µg/mL]	MIC [13] [µg/mL]	MIC [15] [µg/mL]	MIC [16] [µg/mL]	MIC [17] [µg/mL]	MIC [18] [µg/mL]	MIC [20] [µg/mL]	MIC [22] [µg/mL]	MIC [23] [µg/mL]	MIC [25] [µg/mL]	MIC [27] [µg/mL]	MIC [28] [µg/mL]	MIC [29] [µg/mL]	MIC [30] [µg/mL]	further results
NCC(O)C(=O)N[C@@H]1C[C@H](N)[C@@H](O[C@H]2O[C@H](CN)CC[C@H]2N)C[C@H]1O[C@H]1O[C@H](CO)[C@@H](O)[C@H](N)[C@H]1O (stereo partly drawn) [AHP-trideoxyKMB, 1-N-[(RS)-3-amino-2-hydroxypropionyl]-5,3',4'-trideoxykanamycin B]	< 0.2	25 (≈ 47.8 µM)	1.56 (≈ 2.99 µM)	1.56 (≈ 2.99 µM)	6.25 (≈ 12 µM)	6.25 (≈ 12 µM)	3.13 (≈ 5.99 µM)	> 100	> 100	12.5 (≈ 23.9 µM)	1.56 (≈ 2.99 µM)	< 0.2	25 (≈ 47.8 µM)	1.56 (≈ 2.99 µM)	6.25 (≈ 12 µM)	0.2 (≈ 0.383 µM)	100 (≈ 191 µM)	50 (≈ 95.7 µM)	< 0.2	0.78 (≈ 1.49 µM)	MIC ([2]; nutrient agar, 37° C., 18 hours incubation, read-out: MIC): 1.56 µg/mL (≈ 2.99 µM); MIC ([4]; K12, nutrient agar, 37° C., 18 hours incubation, read-out: MIC): 1.56 µg/mL (≈ 2.99 µM); MIC ([5]; KPS102, nutrient agar, 37° C., 18 hours incubation, read-out: MIC): 3.13 µg/mL (≈ 5.99 µM); MIC ([6]; H9, nutrient agar, 37° C., 18 hours incubation, read-out: MIC): 3.13 µg/mL (≈ 5.99 µM); MIC ([12]; PCI602, nutrient agar, 37° C., 18 hours incubation, read-out: MIC): 1.56 µg/mL (≈ 2.99 µM); MIC [14, 32]: 0.78 µg/mL (≈ 1.49 µM); MIC [19, 33]: 3.13 µg/mL (≈ 5.99 µM); MIC ([21]; TI13, nutrient agar, 37° C., 18 hours incubation, read-out: MIC): 3.13 µg/mL (≈ 5.99 µM); MIC ([24]; NO.12, nutrient agar, 37° C., 18 hours incubation, read-out: MIC): 3.13 µg/mL (≈ 5.99 µM); MIC [26, 34]: 0.78 µg/mL (≈ 1.49 µM); MIC ([31]; JR66/W677, nutrient agar, 37° C., 18 hours incubation, read-out: MIC): 3.13 µg/mL (≈ 5.99 µM)
CNC[C@@H]1CC[C@@H](N)[C@@H](O[C@H]2C[C@@H](O[C@H]3O[C@H](CO)[C@@H](O)[C@H](N)[C@H]3O)[C@H](NC(=O)C(O)CN)C[C@@H]2N)O1 (stereo partly drawn) [AHP-trideoxyMKMB, 1-N-[(RS)-3-amino-2-hydroxypropionyl]-5,3',4'-trideoxy-6'-N-methylkanamycin B]	0.39 (≈ 0.727 µM)	50 (≈ 93.2 µM)	1.56 (≈ 2.91 µM)	3.13 (≈ 5.83 µM)	6.25 (≈ 11.6 µM)	3.13 (≈ 5.83 µM)	3.13 (≈ 5.83 µM)	50 (≈ 93.2 µM)	> 100	25 (≈ 46.6 µM)	3.13 (≈ 5.83 µM)	< 0.2	12.5 (≈ 23.3 µM)	3.13 (≈ 5.83 µM)	3.13 (≈ 5.83 µM)	0.39 (≈ 0.727 µM)	12.5 (≈ 23.3 µM)	3.13 (≈ 5.83 µM)	0.39 (≈ 0.727 µM)	< 0.2	MIC ([2]; 18 h): 3.13 µg/mL (≈ 5.83 µM); MIC ([4]; K12, 18 h): 3.13 µg/mL (≈ 5.83 µM); MIC ([5]; KPS102, 18 h): 3.13 µg/mL (≈ 5.83 µM); MIC ([6]; H9, 18 h): 3.13 µg/mL (≈ 5.83 µM); MIC ([12]; PCI602, 18 h): 3.13 µg/mL (≈ 5.83 µM); MIC [14, 32]: 1.56 µg/mL (≈ 2.91 µM); MIC [19, 33]: 12.5 µg/mL (≈ 23.3 µM); MIC ([21]; TI13, 18 h): 3.13 µg/mL (≈ 5.83 µM); MIC ([24]; NO.12, 18 h): 3.13 µg/mL (≈ 5.83 µM); MIC [26, 34]: 0.78 µg/mL (≈ 1.45 µM); MIC ([31]; JR66/W677, 18 h): 6.25 µg/mL (≈ 11.6 µM)
CNC[C@@H]1CC[C@@H](N)[C@@H](O[C@H]2C[C@@H](O[C@H]3O[C@H](CO)[C@@H](O)[C@H](N)[C@H]3O)[C@H](NC(=O)[C@@H](O)CCCN)C[C@@H]2N)O1 [AHV-trideoxyMKMB, 1-N-[(S)-5-amino-2-hydroxyvaleryl]-5,3',4'-trideoxy-6'-N-methylkanamycin B]	0.2 (≈ 0.354 µM)	25 (≈ 44.3 µM)	1.56 (≈ 2.76 µM)	3.13 (≈ 5.54 µM)	6.25 (≈ 11.1 µM)	1.56 (≈ 2.76 µM)	3.13 (≈ 5.54 µM)	50 (≈ 88.5 µM)	> 100	12.5 (≈ 22.1 µM)	1.56 (≈ 2.76 µM)	< 0.2	12.5 (≈ 22.1 µM)	1.56 (≈ 2.76 µM)	3.13 (≈ 5.54 µM)	0.39 (≈ 0.691 µM)	6.25 (≈ 11.1 µM)	3.13 (≈ 5.54 µM)	< 0.2	0.39 (≈ 0.691 µM)	MIC ([2]; 18 h): 1.56 µg/mL (≈ 2.76 µM); MIC ([4]; K12, 18 h): 1.56 µg/mL (≈ 2.76 µM); MIC ([5]; KPS102, 18 h): 1.56 µg/mL (≈ 2.76 µM); MIC ([6]; H9, 18 h): 3.13 µg/mL (≈ 5.54 µM); MIC ([12]; PCI602, 18 h): 1.56 µg/mL (≈ 2.76 µM); MIC ([14]; ATCC10702, 18 h): 1.56 µg/mL (≈ 2.76 µM); MIC ([19]; Pseudomonas aeruginosa, 99, 18 h): 6.25 µg/mL (≈ 11.1 µM); MIC ([21]; TI13, 18 h): 1.56 µg/mL (≈ 2.76 µM); MIC ([24]; NO.12, 18 h): 3.13 µg/mL (≈ 5.54 µM); MIC ([26]; PCI1001, 18 h): 1.56 µg/mL (≈ 2.76 µM); MIC ([31]; JR66/W677, 18 h): 3.13 µg/mL (≈ 5.54 µM)
